From US20070117743A1, “New antitumoral compounds” (priority 2003, published 2007)

Key:
Format in all cases: cell-based, human
PANC-1 = experiment: SRB colorimetric assay of cell growth and viability, PANC-1; conditions: 48 hours exposure; for CC50: read-out: LC50 PANC-1
HT-29 = experiment: SRB colorimetric assay of cell growth and viability, HT-29; conditions: 48 hours exposure; for GI50: read-out: GI50 HT-29; for CC50: read-out: LC50 HT-29
SK-MEL-28 = experiment: SRB colorimetric assay of cell growth and viability, SK-MEL-28; conditions: 48 hours exposure; for CC50: read-out: LC50 MEL-28
HeLa = experiment: SRB colorimetric assay of cell growth and viability, HeLa; conditions: 48 hours exposure; for CC50: read-out: LC50 HELA
IGROV-1 = experiment: SRB colorimetric assay of cell growth and viability, IGROV-1; conditions: 48 hours exposure
LoVo-Dox = experiment: SRB colorimetric assay of cell growth and viability, LoVo-Dox; conditions: 48 hours exposure; for CC50: read-out: LC50 LOVO-DOX
How it was run: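 SRB staining (0.4% wt/vol in 1% acetic acid, 10 min, room temperature) of cells fixed with 50% TCA follows a 48-hour exposure to compound. Plating density is 5×10^3 cells/well, and the OD is taken at 490 nm.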

DU-145 = experiment: SRB colorimetric assay of cell growth and viability, DU-145; conditions: 48 hours exposure
A-549 = experiment: SRB colorimetric assay of cell growth and viability, A-549; conditions: 48 hours exposure; for GI50: read-out: GI50 A-549; for CC50: read-out: LC50 A-549
K-562 = experiment: SRB colorimetric assay of cell growth and viability, K-562; conditions: 48 hours exposure; for CC50: read-out: LC50 K-562
HeLa-APL = experiment: SRB colorimetric assay of cell growth and viability, HeLa-APL; conditions: 48 hours exposure; for CC50: read-out: LC50 HELA-APL
IGROV-ET = experiment: SRB colorimetric assay of cell growth and viability, IGROV-ET; conditions: 48 hours exposure; for CC50: read-out: LC50 IGROV-ET
LoVo = experiment: SRB colorimetric assay of cell growth and viability, LoVo; conditions: 48 hours exposure; for CC50: read-out: LC50 LOVO
SK-BR-3 = experiment: SRB colorimetric assay of cell growth and viability, SK-BR-3; conditions: 48 hours exposure
LNCaP = experiment: SRB colorimetric assay of cell growth and viability, LNCaP; conditions: 48 hours exposure; for GI50: read-out: GI50 LN-caP; for CC50: read-out: LC50 LN-caP

Compound: C/C=C1\NC(=O)[C@H](Cc2ccccc2)NC(=O)[C@@H](C(C)C)NC(=O)[C@@H](C(C)CC)NC(=O)[C@H](NC(=O)[C@H](NC(=O)[C@H](CCCN)NC(=O)[C@H]2CCCN2C(=O)[C@H](NC(=O)[C@@H](NC(=O)[C@@H](NC(=O)[C@H](NC(=O)CCC(C)CC)C(C)C)C(C)O)C(C)C)C(C)C)C(C)CC)C(C)OC(=O)[C@H](C(C)C)NC1=O (stereo partly drawn) [Compound 1, (4S)-MeHex-D-Val-ThrVal-D-Val-D-Pro-Orn-D-allo-Ile-cyclo[D-allo-Thr-D-allo-Ile-D-Val-Phe-(Z)Dhb-Val]]
- GI50 (PANC-1): 1820 nM
- TGI PANC-1 (PANC-1): 3.66E−06 Molar
- CC50 (PANC-1): ≥ 6770 nM
- TGI HT-29 (HT-29): 2.18E−07 Molar
- GI50 (HT-29): 95.4 nM
- CC50 (HT-29): 498 nM
- GI50 (SK-MEL-28): 315 nM
- TGI MEL-28 (SK-MEL-28): 4.10E−07 Molar
- CC50 (SK-MEL-28): 2100 nM
- GI50 (HeLa): 254 nM
- TGI HELA (HeLa): 7.38E−07 Molar
- CC50 (HeLa): 2560 nM
- GI50 (IGROV-1): 158 nM
- LC50 (concentration causing 50% net cell killing) (IGROV-1): 641 nM
- TGI IGROV (IGROV-1): 3.19E−07 Molar
- GI50 (LoVo-Dox): 63.6 nM
- TGI LOVO-DOX (LoVo-Dox): 2.29E−07 Molar
- CC50 (LoVo-Dox): 1430 nM
- GI50 (DU-145): 327 nM
- LC50 (concentration causing 50% net cell kill) (DU-145): 2540 nM
- TGI DU-145 (DU-145): 8.80E−07 Molar
- TGI A-549 (A-549): 2.05E−06 Molar
- GI50 (A-549): 907 nM
- CC50 (A-549): 4630 nM
- GI50 (K-562): 1620 nM
- TGI K-562 (K-562): 2.96E−06 Molar
- CC50 (K-562): 5400 nM
- GI50 (HeLa-APL): 556 nM
- TGI HELA-APL (HeLa-APL): 1.52E−06 Molar
- CC50 (HeLa-APL): 3810 nM
- GI50 (IGROV-ET): 135 nM
- TGI IGROV-ET (IGROV-ET): 2.89E−07 Molar
- CC50 (IGROV-ET): 619 nM
- GI50 (LoVo): 116 nM
- TGI LOVO (LoVo): 2.42E−07 Molar
- CC50 (LoVo): 502 nM
- GI50 (SK-BR-3): 43.4 nM
- LC50 (SK-BR-3): 469 nM
- TGI SK-BR-3 (SK-BR-3): 9.27E−08 Molar
- TGI LN-caP (LNCaP): 2.14E−06 Molar
- GI50 (LNCaP): 900 nM
- CC50 (LNCaP): 5080 nM

Compound: C/C=C1\NC(=O)[C@H](Cc2ccccc2)NC(=O)[C@@H](C(C)C)NC(=O)[C@@H]([C@@H](C)CC)NC(=O)[C@H](NC(=O)[C@H](NC(=O)[C@H](CCCN)NC(=O)[C@H]2CCCN2C(=O)[C@H](NC(=O)[C@@H](NC(=O)[C@@H](NC(=O)[C@H](NC(=O)CCCC(C)C)C(C)C)[C@@H](C)O)C(C)C)C(C)C)[C@@H](C)CC)[C@H](C)OC(=O)[C@H](C(C)C)NC1=O [Compound 2, [D-Thr^6]-KF]
- GI50 (PANC-1): ≥ 6770 nM
- TGI PANC-1 (PANC-1): 6.77E−06 Molar
- CC50 (PANC-1): ≥ 6770 nM
- TGI HT-29 (HT-29): 6.77E−06 Molar
- GI50 (HT-29): ≥ 6770 nM
- CC50 (HT-29): ≥ 6770 nM
- GI50 (SK-MEL-28): ≥ 6770 nM
- TGI MEL-28 (SK-MEL-28): 6.77E−06 Molar
- CC50 (SK-MEL-28): ≥ 6770 nM
- GI50 (HeLa): ≥ 6770 nM
- TGI HELA (HeLa): 6.77E−06 Molar
- CC50 (HeLa): ≥ 6770 nM
- GI50 (IGROV-1): 1990 nM
- LC50 (concentration causing 50% net cell killing) (IGROV-1): ≥ 6770 nM
- TGI IGROV (IGROV-1): 5.33E−06 Molar
- GI50 (LoVo-Dox): 3060 nM
- TGI LOVO-DOX (LoVo-Dox): 6.77E−06 Molar
- CC50 (LoVo-Dox): ≥ 6770 nM
- GI50 (DU-145): 5290 nM
- LC50 (concentration causing 50% net cell kill) (DU-145): ≥ 6770 nM
- TGI DU-145 (DU-145): 6.77E−06 Molar
- TGI A-549 (A-549): 6.77E−06 Molar
- GI50 (A-549): ≥ 6770 nM
- CC50 (A-549): ≥ 6770 nM
- GI50 (K-562): ≥ 6770 nM
- TGI K-562 (K-562): 6.77E−06 Molar
- CC50 (K-562): ≥ 6770 nM
- GI50 (HeLa-APL): ≥ 6770 nM
- TGI HELA-APL (HeLa-APL): 6.77E−06 Molar
- CC50 (HeLa-APL): ≥ 6770 nM
- GI50 (IGROV-ET): 1600 nM
- TGI IGROV-ET (IGROV-ET): 3.80E−06 Molar
- CC50 (IGROV-ET): ≥ 6770 nM
- GI50 (LoVo): ≥ 6770 nM
- TGI LOVO (LoVo): 6.77E−06 Molar
- CC50 (LoVo): ≥ 6770 nM
- GI50 (SK-BR-3): 4470 nM
- LC50 (SK-BR-3): ≥ 6770 nM
- TGI SK-BR-3 (SK-BR-3): 6.77E−06 Molar
- TGI LN-caP (LNCaP): 6.77E−06 Molar
- GI50 (LNCaP): 2130 nM
- CC50 (LNCaP): ≥ 6770 nM
